Entries after “also recorded” stand apart in the source; their conditions may differ.
How the values were obtained:
HL-60 cells [1] = test: Apoptosis in HL-60 cells (apoptic bodies, DNA fragmentation); assay type: cell-based, human; conditions: for apoptic bodies in the cells: at each of the cell-growth-inhibiting concentrations
Method: (§1) (1) Each 0.5 ml of 0.2 mM CM, 0.8 mM CM or 1.6 mM CM was added to 4.5 ml of RPMI 1640 medium containing 10% of fetal calf serum and 2.5×10^5HL-60 cells (promyelocytic leukemia cell) (ATCC CCL-240) and incubated at 37° C. for 24 hours or 48 hours in the presence of 5% carbon dioxide gas and the numbers of viable cells were measured.
(§2) (2) To each of the wells of a 96-well microtiter plate was added 8, 40, 200 or 1000 μM aqueous solution of GM or 10 μl of water as a control. HL-60 (ATCC CCL-240) was suspended in an RPMI 1640 medium containing 10% of fetal calf serum to make the concentration 5×10^4 cells/ml and each 90 μl thereof was placed in each well of the above-mentioned microtiter plate and incubated at 37° C. for 48 hours in the presence of 5% carbon dioxide. Incubation was conducted for four hours more after addition of 10 μl of a solution (5 mg/ml) of 3-(4,5-dimethylthiazol-2-yl)-2,5-diphenyltetrzolium bromide (MTT; manufactured by Sigma) in a phosphate-buffered saline solution and the state of growth of the cells was observed under a microscope. Further, 100 μl of 2-propanol containing 0.04N hydrochloric acid was added followed by stirring and an absorbance at 590 nm was measured.
(§3) (4) HL-60 cells (ATCC CCL240) which were incubated at 37° C. in an RPMI 1640 medium (manufactured by Nissui) containing 10% of fetal calf serum (manufactured by Gibco) treated at 56° C. for 30 minutes were suspended in the above medium to make the concentration 2.5×10^5cells/4.5 ml. To this suspension was added 0.5 ml of 100 μM aqueous solution of GM (final concentration: 10 μM) followed by incubating at 37° C. in the presence of 5% carbon dioxide gas for 24 hours, 48 hours and 72 hours.
(§4) (5) To each well of the 96-well microtiter plate was added 4.12, 12.3, 37.0, 111, 333 or 1000 μM aqueous solution of GD or 10 μl of water as a control. HL-60 (ATCC CCL-240) was suspended in an RPMI 1640 medium containing 10% of fetal calf serum to make the concentration 5×10^4 cells/ml and each 90 μl thereof was placed in each well of the above-mentioned microtiter plate followed by incubating at 37° C. for 48 hours in the presence of 5% carbon dioxide gas. The incubation was conducted for four hours more after addition of 10 μl of 5 mg/ml solution of 3-(4,5-dimethylthiazol-2-yl)-2,5-diphenyltetrazolium bromide (MTT; manufactured by Sigma) in a phosphate-buffered saline solution and the state of growth of the cells was observed under a microscope. In the meanwhile, 100 μl of 2-propanol containing 0.04N HCl was added followed by well stirring and the absorbance at 590 nm was measured.

[2] = tested on: HL-60 cells (promyelocytic leukemia cell); test: Viable cell numbers of HL-60 (growth inhibition of cancer cells); assay type: cell-based, human
Method: as §1
In FIG. 28, open square (.quadrature.) indicates the case where CM is added followed by culturing for 24 hours; black square (.box-solid.) indicates the case where CM is added followed by culturing for 48 hours; open triangle (Δ) indicates the case where no sample was added followed by culturing for 24 hours; and black triangle (.tangle-solidup.) indicates the case where no sample was added followed by culturing for 48 hours.
as §3, with “hours. […]” for “hours.”

HL-60 cells [3] = test: MTT growth inhibition of HL-60; assay type: cell-based, human; conditions: Homo sapiens, HL-60, 48 hours; for activity at 10 µM / activity at 20 µM / activity at 40 µM: read-out: degree of cell growth (ratio of absorbance at 590 nm of sample-added section to control)
Method: as §2
(3) To each well of the 96-well microtiter plate was added 100, 200 or 400 μM aqueous solution of GM or CM or 10 μl of water as a control and the inhibition activity of growth of HL-60 was measured by the same method as mentioned in Example 5-(2). The degree of cell growth was, however, expressed in terms of the ratio (%) of the absorbance at 590 nm of the sample-added section to that of the water-added section (the control).
as §4
(6) Cyclopentenone and L-cysteine hydrochloride were dissolved in a phosphate buffered saline solution (pH 7.2) to make their concentrations 55 mM and 80 mM, respectively and made to react at 37° C. for 15 minutes at pH 7.2. Apart of the reaction solution was analyzed by a reversed phase HPLC using a column of TSK gel ODS-80Ts (4.6 mm×250 mm; manufactured by Tosoh)at the flow rate of 1 ml/minute using 0.1% aqueous solution of trifluoroacetic acid as a mobile phase whereupon no cyclopentenone was detected. This reaction solution was a solution containing 55 mM of CD.
Degree of cell growth was, however, expressed in terms of the ratio (%) of the absorbance at 590 nm of the section to which the sample was added to that of the control where water was added.

IMC = test: IMC/CDF1 mice macrobiotic effect; assay type: in vivo
[4] = tested on: Bacillus subtilis IFO 3021; test: Antibacterial activity, viable cell numbers; assay type: cell-based
Method: Bacillus subtilis IFO 3021 was incubated (by mans of a seed culture) overnight in a sensitive bouillon medium (manufactured by Nissui). Absorbance at 600 nm was measured and viable cell numbers were calculated from the previously-prepared calibration curve showing the relation between the viable cell numbers and absorbance at 600 nm. The seed-cultured liquid was diluted with a fresh sensitive bouillon medium to make the concentration 1×10^6 cells/ml and each 180 μl thereof was placed in each well of the 96-well microtiter plate. Each 20 μl of aqueous solution of GM (4 mg/ml or 2 mg/ml) or water was added to each well followed by allowing to a stationary culture at 37° C. for one night (main incubation) In the meanwhile, a part of the seed culture liquid was diluted with sterilized water, spread onto a sensitive bouillon agar plate medium and incubated at 37° C. for one night and the colonies were counted to measure the precise viable cell numbers.
The cultured liquid in each of the wells was diluted with sterilized water, spread onto a sensitive bouillon agar plate medium and incubated at 37° C. for one night and the colonies were counter to measure the viable cell numbers.

mouse leukemia P-388 = test: Mouse leukemia P-388 survival (macrobiotic effect) in DBA/2 mice; assay type: in vivo; conditions: 10 mg/kg/day i.p., five days
Method: GM was diluted with a physiological saline solution to a predetermined concentration and subjected to the following tests.
(2) Mouse leukemia P-388 (1.1×10^6 cells/mouse) was intraperitoneally injected to female DBA/2 mice (body weight: about 20 g) of seven weeks age. After that, GM, CM, GD or CD (10 mg/kg/day) was intraperitoneally injected for consecutive five clays. In the meanwhile, a physiological saline solution was intraperitoneally injected to the control group by the same manner. In the two group each consisting of eight mice, survived numbers, average survived days and macrobiotic rate of the mice were calculated.

Row | SMILES | fragmentation of DNA into a chromatin unit (HL-60 cells [1]; 10 μM GM, agarose gel electrophoresis) | apoptic bodies in the cells (HL-60 cells [1]) | viable cell numbers and viability of cells ([2]; 10 μM GM, 24, 48 and 72 hours, vs water control) | activity at 10 µM (HL-60 cells [3]) [%] | activity at 20 µM (HL-60 cells [3]) [%] | activity at 40 µM (HL-60 cells [3]) [%] | IC100 (HL-60 cells [3]; MTT, final concentration, read-out: concentration at which growth of HL-60 cells was completely inhibited) [µM] | macrobiotic effect (IMC) | viable cell numbers ([4]; 400 μg/ml final, one night at 37° C., water 1.3×10^8) | macrobiotic effect (average survived days) (mouse leukemia P-388) | inhibition activity of the growth of cancer cells ([2]; 0.5 ml of 0.2, 0.8 or 1.6 mM CM added to 4.5 ml, 24 or 48 hours) | antibacterial activity (in words) ([4]; compared with GM)
1 | N[C@@H](CCC(=O)N[C@@H](CSC1C=C(O)C(=O)C1)C(=O)NCC(=O)O)C(=O)O (stereo partly drawn) [GM, 2-hydroxy-4-glutathion-S-yl-2-cyclopenten-1-one] | fragmentation of DNA into a chromatin unit was observed | apoptic bodies were formed in the cells; also recorded: aggregation of nuclei, reduction in size of the cells and production of apoptic bodies were detected | significantly reduced | 14.8 | 1.8 | 3.2 | 4 | same macrobiotic effect | 4.4×10^7 cells/ml | significant macrobiotic effect | – | –
2 | N[C@@H](CSC1C=C(O)C(=O)C1)C(=O)O (stereo partly drawn) [CM] | – | apoptic bodies were detected | – | 48.9 | 16.1 | 2.8 | – | same macrobiotic effect | – | significant macrobiotic effect | intensive inhibition activity of the growth of cancer cells | same results

— US6177592A, “Compounds” (priority 1997, dated 2001)
